Assay results reported in ChEMBL document CHEMBL6109161, “Novel Pyrazolo[1,5-a]pyrimidine-3,5-diamines as nSMase2 Inhibitors” (ACS Med Chem Lett, 2025).

Test: Inhibition of recombinant human neutral sphingomyelinase 2 using […] as substrate in presence of alkaline phosphatase, choline oxidase and horseradish peroxidase by fluorescence-based coupled assay

CC1CCCN1c1ccn2ncc(N(C)C)c2n1 (stereo unspecified)
IC50: 70 nM

CN(C)c1cnn2ccc(N3CCOCC3)nc12
IC50: 60 nM

COc1ccc(CNc2ccn3ncc(N(C)C)c3n2)cc1OC
IC50: 30 nM

CN(C)c1cnn2ccc(NCc3ccccc3)nc12
IC50: 80 nM

CN(C)c1cnn2ccc(NCc3ccc(C(F)(F)F)cc3)nc12
IC50: 40 nM

CN(C)c1ccc(CNc2ccn3ncc(N(C)C)c3n2)cc1
IC50: 100 nM
